According to BindingDB's records for doi:10.1016/j.chembiol.2009.02.013 (Pfizer, 2009):

Molecular target: T1, Fatty-acid amide hydrolase 1 [30-579] (Rattus norvegicus, UniProt P97612)
T1 construct: 30-579
T1 sequence (P97612 whole entry): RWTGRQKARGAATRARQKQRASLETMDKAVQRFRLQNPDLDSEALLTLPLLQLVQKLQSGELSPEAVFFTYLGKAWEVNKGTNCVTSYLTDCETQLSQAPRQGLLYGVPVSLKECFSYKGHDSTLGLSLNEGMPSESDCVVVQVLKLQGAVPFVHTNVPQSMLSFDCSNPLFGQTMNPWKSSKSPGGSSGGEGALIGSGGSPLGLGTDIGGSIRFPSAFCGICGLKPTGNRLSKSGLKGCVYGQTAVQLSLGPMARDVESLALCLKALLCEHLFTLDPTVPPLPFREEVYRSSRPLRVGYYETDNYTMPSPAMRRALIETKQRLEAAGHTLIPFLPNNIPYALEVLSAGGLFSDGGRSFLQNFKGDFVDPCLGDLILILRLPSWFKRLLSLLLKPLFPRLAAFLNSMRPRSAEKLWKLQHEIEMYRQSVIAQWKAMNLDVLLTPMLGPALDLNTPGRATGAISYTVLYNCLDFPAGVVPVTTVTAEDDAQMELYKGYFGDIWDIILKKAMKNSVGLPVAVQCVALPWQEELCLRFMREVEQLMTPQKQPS
Assay: Enzyme-coupled Assay
Source text: Enzyme-coupled assay using oleamide as substrate where stoichiometic quantites of NAD are formed upon the generation of ammonia from oleamide by FAAH hydrolysis.

O=C(Nc1cccnc1)N1CCC(Cc2cccc(Oc3ccc(C(F)(F)F)cn3)c2)CC1 [PF-3845, 10]
Ki: 230 nM
